The text below walks through data of patent US20150299143A1, “SUBSTITUTED TRIAZOLE AND IMIDAZOLE COMPOUNDS” (HOFFMANN-LA ROCHE INC., priority 2012, published 2015).

In general, IC50 refers to the concentration needed to halve the response being measured.

Read-outs that look alike come from different tables or passages of the source.

The target in one assay is T1, β 1i (caspase-like) (Homo sapiens, UniProt P28065+P40306).
T1 construct: protease activity associated with the proteasome complex in cultured cells; endogenous in cells; host or cells: Ramos cells
Briefly: Cell-Based Proteasome subunit activity/selectivity assay, β1i, substrate (PAL)2Rh110. The essentials: (§1)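 Subunit activity in cultured cells read with subunit-selective fluorogenic Rh110 substrates: (LLE)2 for β1c, (PAL)2 for β1i, (KQL)2 for β2c/2i, (WLA)2 for β5c. Cells exposed to 4-fold serially diluted compound (top 20 μM) 30 min at 37 °C, then substrate 120 min at room temperature; fluorescence 500/519 nm.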

Assay [1] has as its target T2, β 5i (chymotrypsin-like activity) (Homo sapiens, UniProt P20618+P28062).
T2 construct: protease activity associated with the proteasome complex in cultured cells; endogenous in cells; host or cells: Ramos cells
Description: Cell-Based Proteasome subunit activity/selectivity assay, β5i, substrate (ANW)2Rh110. Particulars: Ramos cells; substrate (ANW)2Rh110 (β5i); highest concentration tested 20 μM; read-out: Ic50:ramos:ac-(anw)2-r110. A digest of the protocol: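 Cell-based fluorogenic assay measuring chymotrypsin-like β5i proteasome activity using the substrate (ANW)2Rh110. Cultured cells received 0.5 μl of 100× 4-fold serial diluted compounds or DMSO per well, were incubated 30 minutes at 37° C, then equilibrated 15 minutes at room temperature. After shaking one minute @ 700 rpm and 120 min room-temperature incubation, fluorescence was read at 500 nm excitation/519 nm emission on an Envision reader.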

Assay [2] addresses T3, β5c (chymotrypsin-like activity) (Homo sapiens, UniProt P20618+P28074).
T3 construct: protease activity associated with the proteasome complex in cultured cells; endogenous in cells; host or cells: Ramos cells
Description: Cell-Based Proteasome subunit activity/selectivity assay, β5c, substrate (WLA)2Rh110. The essentials: as §1

For a further assay, the system named is β 2c/2i (trypsin-like). Description: Cell-Based Proteasome subunit activity/selectivity assay, β2c/2i, substrate (KQL)2Rh110. The conditions noted are these: Ramos cells; substrate (KQL)2Rh110 (β2c/2i); highest concentration tested 20 μM. The essentials:
as §1

Another assay concerns the target T4, β 1c (caspase-like) (Homo sapiens, UniProt P28072+Q99436).
T4 construct: protease activity associated with the proteasome complex in cultured cells; endogenous in cells; host or cells: Ramos cells
Briefly: Cell-Based Proteasome subunit activity/selectivity assay, β1c, substrate (LLE)2Rh110. A digest of the protocol:
as §1

[3] abbreviates: Ramos cells, substrate (PAL)2Rh110 (β1i), highest concentration tested 20 μM, read-out: Ic50:ramos:rh110-(pal)2.
Where [4] appears, read: Ramos cells, substrate (WLA)2Rh110 (β5c), highest concentration tested 20 μM, read-out: Ic50:ramos:rh110-(wla)2.
Where [5] appears, read: Ramos cells, substrate (LLE)2Rh110 (β1c), highest concentration tested 20 μM, read-out: Ic50:ramos:rh110-(lle)2.

As for `N#CC(NC(=O)c1cn(CCNC(=O)c2ccc(C(F)(F)F)cc2F)nn1)c1ccc(C(F)(F)F)cc1` (stereo not drawn) [Example 73, 1-[2-(2-Fluoro-4-trifluoromethyl-benzoylamino)-ethyl]-1H-[1,2,3]triazole-4-carboxylic acid [cyano-(4-trifluoromethyl-phenyl)-methyl]-amide], the IC50 is at least 20 µM on β 1i (caspase-like) (setting [3]); 0.184 µM in assay [1]; at least 20 µM in assay [2] (setting [4]); at least 20 µM with β 2c/2i (trypsin-like); at least 20 µM on β 1c (caspase-like) (setting [5]).
For `COc1ccc(C(=O)NCCn2cc(C(=O)NC(C#N)c3ccc(OC(F)(F)F)cc3)nn2)c(OC)c1OC` (stereo not drawn) [Example 10, 1-[2-(2,3,4-Trimethoxy-benzoylamino)-ethyl]-1H-[1,2,3]triazole-4-carboxylic acid [cyano-(4-trifluoromethoxy-phenyl)-methyl]-amide], the IC50 was at least 20 µM on β 1i (caspase-like) (setting [3]); 0.886 µM in assay [1]; at least 20 µM in assay [2] (setting [4]); at least 20 µM in the assay on β 2c/2i (trypsin-like); at least 20 µM at β 1c (caspase-like) (setting [5]).
For the compound `COc1ccc(C(=O)NCCn2cc(C(=O)NC(C#N)c3cccc4ccccc34)nn2)c(OC)c1OC` (stereo not drawn) [Example 57, 1-[2-(2,3,4-Trimethoxy-benzoylamino)-ethyl]-1H-[1,2,3]triazole-4-carboxylic acid (cyano-naphthalen-1-yl-methyl)-amide], the IC50 on β 1i (caspase-like) is at least 20 µM; in assay [1], 6.49 µM; in assay [2], at least 20 µM; in the assay with β 2c/2i (trypsin-like), at least 20 µM; against β 1c (caspase-like) it was at least 20 µM.
`CCc1ccc(C(C#N)NC(=O)c2cn(CCNC(=O)c3ccc(S(C)(=O)=O)cc3Cl)nn2)cc1` (stereo not drawn) [Example 41, 1-[2-(2-Chloro-4-methanesulfonyl-benzoylamino)-ethyl]-1H-[1,2,3]triazole-4-carboxylic acid [cyano-(4-ethyl-phenyl)-methyl]-amide]: the IC50 was at least 20 µM on β 1i (caspase-like) (setting [3]); 0.282 µM in assay [1]; at least 20 µM in assay [2] (setting [4]); at least 20 µM in the assay with β 2c/2i (trypsin-like); at least 20 µM on β 1c (caspase-like) (setting [5]).
Take `COc1ccc(C(=O)NCCn2cc(C(=O)NC(C#N)c3ccc4ccsc4c3)nn2)c(OC)c1OC` (stereo not drawn) [Example 66, 1-[2-(2,3,4-Trimethoxy-benzoylamino)-ethyl]-1H-[1,2,3]triazole-4-carboxylic acid (benzo[b]thiophen-6-yl-cyano-methyl)-amide]: the half-maximal inhibitory concentration (IC50) at β 1i (caspase-like) (setting [3]) was at least 20 µM; in assay [1], 0.795 µM; in assay [2] (setting [4]), at least 20 µM; in the assay with β 2c/2i (trypsin-like), at least 20 µM; at β 1c (caspase-like) (setting [5]), at least 20 µM.
Turning to `CCc1ccc(C(C#N)NC(=O)c2cn(CCNC(=O)c3cc(Cl)ccn3)nn2)cc1` (stereo not drawn) [Example 27, 4-Chloro-pyridine-2-carboxylic acid [2-(4-{[cyano-(4-ethyl-phenyl)-methyl]-carbamoyl}-[1,2,3]triazol-1-yl)-ethyl]-amide], the concentration for half-maximal inhibition (IC50) on β 1i (caspase-like) (setting [3]) was at least 20 µM; in assay [1] it was 4.52 µM; in assay [2] (setting [4]), at least 20 µM; in the assay with β 2c/2i (trypsin-like) it was at least 20 µM; at β 1c (caspase-like) (setting [5]), at least 20 µM.
Consider `CCc1ccc(C(C#N)NC(=O)c2cn(CCNC(=O)c3cc(S(C)(=O)=O)ccc3OC)nn2)cc1` (stereo not drawn) [Example 42, 1-[2-(5-Methanesulfonyl-2-methoxy-benzoylamino)-ethyl]-1H-[1,2,3]triazole-4-carboxylic acid [cyano-(4-ethyl-phenyl)-methyl]-amide], for which the concentration for half-maximal inhibition (IC50) is at least 20 µM at β 1i (caspase-like) (setting [3]); 3.15 µM in assay [1]; at least 20 µM in assay [2] (setting [4]); at least 20 µM in the assay with β 2c/2i (trypsin-like); at least 20 µM on β 1c (caspase-like) (setting [5]).
For `COc1ccc(C(C#N)NC(=O)c2cn(CCNC(=O)c3ccc(OC)c(OC)c3OC)nn2)cn1` (stereo not drawn) [Example 65, 1-[2-(2,3,4-Trimethoxy-benzoylamino)-ethyl]-1H-[1,2,3]triazole-4-carboxylic acid [cyano-(6-methoxy-pyridin-3-yl)-methyl]-amide], the IC50 at β 1i (caspase-like) (setting [3]) was at least 20 µM; in assay [1] it was 0.947 µM; in assay [2] (setting [4]), at least 20 µM; in the assay with β 2c/2i (trypsin-like), at least 20 µM; on β 1c (caspase-like) (setting [5]), 17.8 µM.
Take `CCc1ccc(C(C#N)NC(=O)c2cn(CCCNC(=O)c3ccc(C(F)(F)F)cc3OC)nn2)cc1` (stereo not drawn) [Example 85, 1-[3-(2-Methoxy-4-trifluoromethyl-benzoylamino)-propyl]-1H-[1,2,3]triazole-4-carboxylic acid [cyano-(4-ethyl-phenyl)-methyl]-amide]: the IC50 on β 1i (caspase-like) (setting [3]) was at least 20 µM; in assay [1] it was 0.239 µM; in assay [2] (setting [4]), at least 20 µM; in the assay with β 2c/2i (trypsin-like), at least 20 µM; at β 1c (caspase-like) (setting [5]) it was at least 20 µM.
Regarding `COc1ccc(C(=O)NCCn2cc(C(=O)NCc3ccc(SC)cc3)nn2)c(OC)c1OC` [Example 6, 1-[2-(2,3,4-Trimethoxy-benzoylamino)-ethyl]-1H-[1,2,3]triazole-4-carboxylic acid 4-methylsulfanyl-benzylamide], the half-maximal inhibitory concentration (IC50) at β 1i (caspase-like) (setting [3]) was at least 20 µM; in assay [1], 0.919 µM; in assay [2] (setting [4]), at least 20 µM; in the assay with β 2c/2i (trypsin-like) it was at least 20 µM; at β 1c (caspase-like) (setting [5]), at least 20 µM.
Consider `COc1ccc(C(=O)NCCn2cc(C(=O)NC(C#N)c3ccc(Cl)cc3)nn2)c(OC)c1OC` (stereo not drawn) [Example 68, 1-[2-(2,3,4-Trimethoxy-benzoylamino)-ethyl]-1H-[1,2,3]triazole-4-carboxylic acid [(4-chloro-phenyl)-cyano-methyl]-amide], for which the 50% inhibitory concentration (IC50) on β 1i (caspase-like) (setting [3]) was at least 20 µM; in assay [1], 0.327 µM; in assay [2] (setting [4]) it was 16.8 µM; with β 2c/2i (trypsin-like), at least 20 µM; at β 1c (caspase-like) (setting [5]), at least 20 µM.
For `CCOc1ccc(C(=O)NCCn2cc(C(=O)NC(C#N)c3ccc(CC)cc3)nn2)nc1` (stereo not drawn) [Example 28, 5-Ethoxy-pyridine-2-carboxylic acid [2-(4-{[cyano-(4-ethyl-phenyl)-methyl]-carbamoyl}-[1,2,3]triazol-1-yl)-ethyl]-amide], the IC50 on β 1i (caspase-like) (setting [3]) was at least 20 µM; in assay [1] it was 0.933 µM; in assay [2] (setting [4]), 13.3 µM; in the assay with β 2c/2i (trypsin-like), at least 20 µM; at β 1c (caspase-like) (setting [5]), at least 20 µM.
As to `CCc1ccc(C(C#N)NC(=O)c2cn(CCNC(=O)c3ccc(OC)nc3OC)nn2)cc1` (stereo not drawn) [Example 35, N-[2-(4-{[Cyano-(4-ethyl-phenyl)-methyl]-carbamoyl}-[1,2,3]triazol-1-yl)-ethyl]-2,6-dimethoxy-nicotinamide], the concentration for half-maximal inhibition (IC50) was at least 20 µM on β 1i (caspase-like) (setting [3]); 0.491 µM in assay [1]; 5.49 µM in assay [2] (setting [4]); at least 20 µM with β 2c/2i (trypsin-like); at least 20 µM at β 1c (caspase-like) (setting [5]).
Consider `COc1ccc(C(=O)NCCn2cc(C(=O)NC(C#N)c3ccccc3Br)nn2)c(OC)c1OC` (stereo not drawn) [Example 59, 1-[2-(2,3,4-Trimethoxy-benzoylamino)-ethyl]-1H-[1,2,3]triazole-4-carboxylic acid [(2-bromo-phenyl)-cyano-methyl]-amide], for which the IC50 on β 1i (caspase-like) (setting [3]) was at least 20 µM; in assay [1], 5.67 µM; in assay [2] (setting [4]) it was at least 20 µM; in the assay on β 2c/2i (trypsin-like), at least 20 µM; on β 1c (caspase-like) (setting [5]), at least 20 µM.
As to `COc1cc(OC(F)(F)F)ccc1C(=O)NCCn1cc(C(=O)NC(C#N)c2ccc(C(F)(F)F)cc2)nn1` (stereo not drawn) [Example 71, 1-[2-(2-Methoxy-4-trifluoromethoxy-benzoylamino)-ethyl]-1H-[1,2,3]triazole-4-carboxylic acid [cyano-(4-trifluoromethyl-phenyl)-methyl]-amide], the concentration for half-maximal inhibition (IC50) is at least 20 µM at β 1i (caspase-like) (setting [3]); 5.59 µM in assay [1]; at least 20 µM in assay [2] (setting [4]); at least 20 µM in the assay with β 2c/2i (trypsin-like); at least 20 µM on β 1c (caspase-like) (setting [5]).
